Counter-ions that a name gives are not always drawn.
Assays:
Tau protein = experiment: Inhibition of Tau phosphorylation (Western blot, pSer202) in SH-SY5Y cells; assay type: cell-based; conditions: 4 hrs
Description: SH-SY5Y cells expressing Tau protein were cultured in DMEM containing 10% FBS. 2.5×10^6 cells were placed in a 6-well plate and incubated at 5% CO2 and 37° C. for 16 hrs. The compounds obtained in the above Examples serially diluted ⅓ from 3 uM to 0.5 nM or the compounds in a concentration of 0.3, 0.1, 0.03, 0.01, 0.003 uM were treated for 4 hrs in DMEM containing 5% FBS. After 4 hrs, the culture solution was removed, washed with PBS, and cells were lysed by adding 100 ul of lysis buffer. The lysis buffer consisted of 50 mM Tris-HCl (pH 7.5), 150 mM NaCl, 5 mM EDT, 1 mM EGTA, 50 mM NaF, 1 mM PMSF, 1 mM Na3VO4, 2.5 mM DTT, 1% Triton X-100, and Protease inhibitor (Pierce). The lysed cells were centrifuged at 10,000 rpm and 4° C. for 10 min and the proteins in the supernatant were quantified. 25 ug of the proteins were electrophoresed on a SDS-PAGE gel and transferred to PVDF (Amersharm) membrane. The PVDF membrane was immersed in T-PBS containing 10% skim milk and shaken for 1 hr at room temperature. The primary antibody, Phosph-Tau[pSer202] (Abcam), diluted 1:1500 in T-PBS solution containing 5% skim milk was reacted with the membrane at room temperature for 2 hrs. The membrane was washed with T-PBS. The secondary antibody, Anti-rabbit IgG HRP, diluted 1:5000 was added to the membrane, reacted at room temperature for 1 hr, and washed.

CDK1/cyclinB = target: T1, CDK1/cyclinB (Homo sapiens, UniProt P06493); experiment: Inhibition of CDK enzyme activity (ADP-Glo kinase assay); assay type: biochemical; conditions: 10 uM ATP, histone H1 substrate
T1 construct: purchased Merck Millipore

CDK2/cyclinE = target: T2, CDK2/cyclinE (Homo sapiens, UniProt P24941); experiment: as above; assay type: biochemical; conditions: 10 uM ATP, histone H1 substrate
T2 construct: purchased Merck Millipore
Summary of the method: (§1)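 Kinase reactions in 50 mM Tris-HCl pH 7.5 with MgCl2, EGTA, EDTA and DTT, at 10 µM ATP. CDK2/cyclinE and CDK5/p25 were used at 10 nM and CDK6/cyclinD3 at 50 nM with 0.125 mg/ml histone H1; CDK4/cyclinD1 was used at 20 nM with 0.125 mg/ml Rb protein. After 60 min at 30 °C, ADP was read by ADP-Glo luminescence and IC50 taken from % inhibition versus no-compound control.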

CDK4/cyclinD1 = target: T3, CDK4/cyclinD1 (Homo sapiens, UniProt P11802); experiment: as above; assay type: biochemical; conditions: 10 uM ATP, Rb protein substrate; read-out: IC50 CDK4/cyclinD
T3 construct: purchased Signalchem (US)
Summary of the method: as §1

CDK6/cyclinD3 = target: T4, CDK6/cyclinD3 (Homo sapiens, UniProt Q00534); experiment: as above; assay type: biochemical; conditions: 10 uM ATP, histone H1 substrate; read-out: IC50 CDK6/cyclinD
T4 construct: purchased Merck Millipore
Summary of the method: as §1

CDK5/p25 = target: T5, CDK5/p25 (Homo sapiens, UniProt Q00535); experiment: as above; assay type: biochemical; conditions: 10 uM ATP, histone H1 substrate
T5 construct: purchased Merck Millipore
Summary of the method: as §1

SH-SY5Y = experiment: Inhibition of cancer cell proliferation (MTT); assay type: cell-based, human
Summary of the method: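 Cells were seeded at 3000/well (A549, SK-N-SH and SH-SY5Y in DMEM, NCI-H23 in […], all with 10% FBS), allowed to attach for 16 h, then exposed to compounds at 0.004–10 uM for 72 h at 37 °C. MTT formazan was read at 535 nm, and GI50 was calculated relative to 0.08% DMSO controls.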

T4 sequence (Q00534 whole entry): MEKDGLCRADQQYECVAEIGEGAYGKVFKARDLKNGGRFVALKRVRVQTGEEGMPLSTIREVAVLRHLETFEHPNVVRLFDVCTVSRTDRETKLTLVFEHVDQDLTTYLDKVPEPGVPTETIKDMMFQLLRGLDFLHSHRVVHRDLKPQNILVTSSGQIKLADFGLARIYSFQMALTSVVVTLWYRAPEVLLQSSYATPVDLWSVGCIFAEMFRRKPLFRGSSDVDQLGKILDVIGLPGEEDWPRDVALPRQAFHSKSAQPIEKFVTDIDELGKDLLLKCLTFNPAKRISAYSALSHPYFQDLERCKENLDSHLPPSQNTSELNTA
T4 sequence (P30281 whole entry partner): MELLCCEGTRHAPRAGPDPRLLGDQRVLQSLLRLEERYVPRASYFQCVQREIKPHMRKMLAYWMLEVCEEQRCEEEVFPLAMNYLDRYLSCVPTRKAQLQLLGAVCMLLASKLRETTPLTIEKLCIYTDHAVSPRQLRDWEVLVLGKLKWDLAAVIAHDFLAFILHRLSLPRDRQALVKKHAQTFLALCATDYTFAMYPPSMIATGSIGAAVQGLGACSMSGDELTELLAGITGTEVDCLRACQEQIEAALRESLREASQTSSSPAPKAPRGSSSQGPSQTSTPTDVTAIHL
T1 sequence (P06493 whole entry): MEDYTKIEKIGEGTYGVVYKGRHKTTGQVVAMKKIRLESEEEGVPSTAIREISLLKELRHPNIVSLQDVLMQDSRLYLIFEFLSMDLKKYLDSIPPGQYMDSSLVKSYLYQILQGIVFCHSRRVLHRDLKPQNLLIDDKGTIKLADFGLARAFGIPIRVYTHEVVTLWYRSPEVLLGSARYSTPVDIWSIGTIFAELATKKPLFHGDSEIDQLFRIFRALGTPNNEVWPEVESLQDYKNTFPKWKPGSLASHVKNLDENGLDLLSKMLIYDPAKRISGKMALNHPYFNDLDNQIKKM
T1 sequence (P14635 whole entry partner): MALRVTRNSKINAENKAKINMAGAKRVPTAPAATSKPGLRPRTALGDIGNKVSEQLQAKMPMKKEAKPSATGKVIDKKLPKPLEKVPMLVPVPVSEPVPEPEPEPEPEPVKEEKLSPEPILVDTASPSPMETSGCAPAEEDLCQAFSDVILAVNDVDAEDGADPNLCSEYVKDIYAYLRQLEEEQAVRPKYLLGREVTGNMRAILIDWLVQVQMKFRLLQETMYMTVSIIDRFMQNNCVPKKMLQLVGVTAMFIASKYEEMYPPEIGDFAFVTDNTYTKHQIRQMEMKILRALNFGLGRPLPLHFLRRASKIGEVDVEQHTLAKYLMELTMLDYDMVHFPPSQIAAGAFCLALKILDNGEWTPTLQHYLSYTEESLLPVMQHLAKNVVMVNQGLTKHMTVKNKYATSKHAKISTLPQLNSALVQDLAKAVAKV
T3 sequence (P11802 whole entry): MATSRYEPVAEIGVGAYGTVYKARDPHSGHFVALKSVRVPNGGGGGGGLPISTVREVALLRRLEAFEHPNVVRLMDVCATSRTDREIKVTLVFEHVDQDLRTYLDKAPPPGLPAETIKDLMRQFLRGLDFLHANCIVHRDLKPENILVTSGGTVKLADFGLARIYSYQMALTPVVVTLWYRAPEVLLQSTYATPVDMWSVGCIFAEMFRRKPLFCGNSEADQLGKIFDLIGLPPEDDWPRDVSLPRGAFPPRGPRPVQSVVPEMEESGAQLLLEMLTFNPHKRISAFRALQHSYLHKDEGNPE
T3 sequence (P24385 whole entry partner): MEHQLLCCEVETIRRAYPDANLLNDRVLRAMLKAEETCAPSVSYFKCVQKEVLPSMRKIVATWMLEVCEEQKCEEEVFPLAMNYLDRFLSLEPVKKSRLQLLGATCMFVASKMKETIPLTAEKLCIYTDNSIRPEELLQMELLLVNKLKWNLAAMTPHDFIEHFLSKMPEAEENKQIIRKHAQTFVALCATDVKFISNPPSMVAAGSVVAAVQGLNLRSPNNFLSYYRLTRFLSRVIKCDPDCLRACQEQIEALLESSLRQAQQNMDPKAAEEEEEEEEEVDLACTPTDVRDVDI
T5 sequence (Q00535 whole entry): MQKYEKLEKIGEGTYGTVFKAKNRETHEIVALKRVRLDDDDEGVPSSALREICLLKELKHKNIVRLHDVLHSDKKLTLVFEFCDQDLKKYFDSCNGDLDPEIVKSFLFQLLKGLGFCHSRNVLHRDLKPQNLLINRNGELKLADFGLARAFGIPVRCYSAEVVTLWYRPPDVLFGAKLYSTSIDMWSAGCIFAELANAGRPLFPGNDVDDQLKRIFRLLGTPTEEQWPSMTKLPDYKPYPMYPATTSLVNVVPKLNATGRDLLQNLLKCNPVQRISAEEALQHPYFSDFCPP
T5 sequence (Q15078 99-307 partner limits assumed): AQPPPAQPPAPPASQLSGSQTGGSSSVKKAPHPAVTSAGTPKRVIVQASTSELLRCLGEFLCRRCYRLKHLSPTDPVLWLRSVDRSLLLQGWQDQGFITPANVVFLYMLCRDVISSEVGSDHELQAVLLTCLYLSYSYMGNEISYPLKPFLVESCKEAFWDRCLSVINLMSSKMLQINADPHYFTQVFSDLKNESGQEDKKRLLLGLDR

Row | SMILES | IC50 (CDK1/cyclinB) [nM] | IC50 (CDK2/cyclinE) [nM] | IC50 (CDK4/cyclinD1) [nM] | IC50 (CDK6/cyclinD3) [nM] | IC50 (CDK5/p25) [nM] | GI50 (SH-SY5Y; 72 hrs) [nM] | GI50 (SH-SY5Y; Homo sapiens, SH-SY5Y, 72 h) [nM] | Phosphorylation (%) of Tau (Tau protein; 0.0005 uM) [%] | Phosphorylation (%) of Tau (Tau protein; 0.0014 uM) [%] | Phosphorylation (%) of Tau (Tau protein; 0.0041 uM) [%] | Phosphorylation (%) of Tau (Tau protein; 0.012 uM) [%] | Phosphorylation (%) of Tau (Tau protein; 0.037 uM) [%] | Phosphorylation (%) of Tau (Tau protein; 0.11 uM) [%] | Phosphorylation (%) of Tau (Tau protein; 0.003 uM) [%] | Phosphorylation (%) of Tau (Tau protein; 0.01 uM) [%] | Phosphorylation (%) of Tau (Tau protein; 0.03 uM) [%] | Phosphorylation (%) of Tau (Tau protein; 0.1 uM) [%] | Phosphorylation (%) of Tau (Tau protein; 0.33 uM) [%] | Phosphorylation (%) of Tau (Tau protein; 1 uM) [%] | Phosphorylation (%) of Tau (Tau protein; 3 uM) [%]
1 | Nc1nccc(-c2nc(-c3ccnc(N)c3F)ccc2O)n1 [Example 8] | 2.1 | 2.1 | 108 | 47 | 0.22 | 10 | – | 40 | 43 | 23 | 0 | 0 | 0 | – | – | – | – | – | – | –
2 | Nc1nccc(-c2ccc(O)c(-c3ccnc(N)n3)n2)n1 [Example 1, 2,6-bis(2-aminopyrimidin-4-yl)pyridin-3-ol] | 1.5 | 1.5 | 855 | > 200 | 2.4 | – | 150 | – | – | – | 88 | 92 | 51 | – | – | – | – | 28 | 30 | 25
3 | Nc1cc(-c2ccc(O)c(-c3ccnc(N)n3)n2)ccn1 [Example 10, 2′-amino-6-(2-aminopyrimidin-4-yl)-[2,4′-bipyridin]-5-ol] | 3.6 | 2.6 | 203 | > 200 | 1.2 | – | 110 | – | – | – | 101 | 84 | 60 | – | – | – | – | 39 | 11 | 13

More lines, main results first:

Row | IC50 (CDK1/cyclinB) [nM] | IC50 (CDK2/cyclinE) [nM] | IC50 (CDK4/cyclinD1) [nM] | IC50 (CDK6/cyclinD3) [nM] | IC50 (CDK5/p25) [nM] | GI50 (SH-SY5Y; 72 hrs) [nM] | GI50 (SH-SY5Y; Homo sapiens, SH-SY5Y, 72 h) [nM] | SMILES | Phosphorylation (%) of Tau (Tau protein; 0.0005 uM) [%] | Phosphorylation (%) of Tau (Tau protein; 0.0014 uM) [%] | Phosphorylation (%) of Tau (Tau protein; 0.0041 uM) [%] | Phosphorylation (%) of Tau (Tau protein; 0.012 uM) [%] | Phosphorylation (%) of Tau (Tau protein; 0.037 uM) [%] | Phosphorylation (%) of Tau (Tau protein; 0.11 uM) [%] | Phosphorylation (%) of Tau (Tau protein; 0.003 uM) [%] | Phosphorylation (%) of Tau (Tau protein; 0.01 uM) [%] | Phosphorylation (%) of Tau (Tau protein; 0.03 uM) [%] | Phosphorylation (%) of Tau (Tau protein; 0.1 uM) [%] | Phosphorylation (%) of Tau (Tau protein; 0.33 uM) [%] | Phosphorylation (%) of Tau (Tau protein; 1 uM) [%] | Phosphorylation (%) of Tau (Tau protein; 3 uM) [%]
4 | 0.2 | 0.3 | 125 | 29.8 | 0.3 | – | – | Cc1cc(-c2nc(-c3ccnc(N)c3F)ccc2O)nc(N)n1 [Example 71, 2′-amino-6-(2-amino-6-methylpyrimidin-4-yl)-3′-fluoro-[2,4′-bipyridin]-5-ol 3hydrochloride] | – | – | – | – | – | – | 110 | 101 | 35 | 26 | – | – | –
5 | 0.4 | 0.5 | – | – | 0.9 | – | – | Nc1nccc(-c2ccc(O)c(-c3ccnc(N)n3)n2)n1 [Example 61, 2,6-bis(2-aminopyrimidin-4-yl)pyridin-3-ol 3hydrochloride] | – | – | – | – | – | – | – | – | – | – | – | – | –
